ChEMBL document CHEMBL1145570, “Design and synthesis of 2-pyridones as novel inhibitors of the Bacillus anthracis enoyl-ACP reductase” (Bioorg Med Chem Lett, 2008)
≈ marks a conversion by molar mass, not a printed value.

Tested on: Bacillus anthracis
Test: microbe, parasite or virus in culture
Format: functional
Conditions: dANR

Oc1cc(Cl)ccc1Oc1ccc(Cl)cc1Cl [TRICLOSAN]
MIC: 3.1 µg/mL (≈ 10.7 µM)

O=c1[nH]c(OCc2ccccc2)ccc1Cc1ccccc1
MIC: > 100 µg/mL

COc1ccc(Oc2ccc(Cl)cc2Cl)c(=O)[nH]1
MIC: > 100 µg/mL

COc1ccc(Cn2ccc(OCCCn3c4ccccc4c4ccccc43)cc2=O)cc1
MIC: > 80 µg/mL

O=c1cc(OCc2cccc3ccccc23)ccn1Cc1ccccc1Cl
MIC: > 80 µg/mL

O=c1cc(OCc2ccccc2)ccn1Cc1ccccc1Cl
MIC: 16 µg/mL (≈ 49.1 µM)

O=c1cc(OCc2ccc3ccccc3c2)ccn1Cc1ccccc1Cl
MIC: > 80 µg/mL

O=c1cc(OCCCn2c3ccccc3c3ccccc32)ccn1Cc1ccccc1Cl
MIC: > 80 µg/mL

NC(=O)c1ccc(Cn2ccc(OCc3ccccc3)cc2=O)c(Cl)c1
MIC: > 80 µg/mL

O=c1cc(OCc2ccccc2)ccn1Cc1ccccc1
MIC: > 80 µg/mL

COc1ccc(Oc2ccccc2Cl)c(=O)[nH]1
MIC: > 100 µg/mL

O=c1cc(OCCCn2ccnc2)ccn1Cc1ccccc1Cl
MIC: > 80 µg/mL

O=c1cc(O)ccn1Cc1ccccc1
MIC: > 80 µg/mL

O=c1cc(OCCCn2ccc3ccccc32)ccn1Cc1ccccc1Cl
MIC: > 80 µg/mL

O=c1cc(OCCCn2nnc3ccccc32)ccn1Cc1ccccc1Cl
MIC: > 80 µg/mL

O=C(O)c1ccc(Cn2ccc(OCc3ccccc3)cc2=O)c(Cl)c1
MIC: > 80 µg/mL

O=c1cc(O)ccn1Cc1ccc(O)cc1
MIC: > 80 µg/mL

COc1ccc(Oc2ccccc2Cl)c[n+]1[O-]
MIC: > 100 µg/mL

CCOC(=O)c1cc(Cn2ccc(OCc3ccccc3)cc2=O)on1
MIC: > 100 µg/mL

Nc1ccc(Cn2ccc(OCc3ccccc3)cc2=O)c(Cl)c1
MIC: > 80 µg/mL

[O-][n+]1cc(Cl)ccc1Oc1ccc(Cl)cc1Cl
MIC: > 100 µg/mL

O=c1cc(OCCCn2c3ccccc3c3ccccc32)ccn1Cc1ccccc1
MIC: > 80 µg/mL

C#CCn1ccc(OCc2ccccc2)cc1=O
MIC: > 100 µg/mL

COc1ccc(Cn2ccc(O)cc2=O)cc1
MIC: > 80 µg/mL

N#Cc1ccc(Cn2ccc(OCc3ccccc3)cc2=O)c(Cl)c1
MIC: > 80 µg/mL

N#Cc1ccc(COc2ccn(Cc3ccccc3Cl)c(=O)c2)cc1
MIC: > 80 µg/mL

O=c1cc(OCc2ccccc2)ccn1Cc1ccc([N+](=O)[O-])cc1Cl
MIC: > 80 µg/mL

CC(=O)Nc1ccc(Cn2ccc(OCc3ccccc3)cc2=O)c(Cl)c1
MIC: > 80 µg/mL
